According to patent EP2386565A2, “Compounds and methods to inhibit or augment an inflammatory response” (Cambridge Enterprise Ltd., priority 1999, dated 2000):
Positions of bridges follow the written chain, without caps; N, C: chain ends. Non-standard residues stand in square brackets, D forms with d. Residues, ends and D or L forms follow the SMILES beside them.

What was measured:
[1] = test system: TGFβ1 induced THP-1 migration; test: THP-1 trans-well migration assay, TGFβ1 as non-chemokine control chemoattractant; format: cell-based, human; conditions: for % inhibition at 100 µM versus TGFβ1: THP-1 migration, agent at 100 µM, n.s. = no statistically significant inhibition
Protocol: Any method suitable for counting cells can be used, for example, counting with a hemocytometer, incubation of the cells with MTT (see above), or FACS analysis. A negative control assay is also performed, using TGF-β or another non-chemokine chemoattractant (e.g., IL1β or TNFα). To assess whether the agent is cytotoxic, the same concentrations of agent are incubated with THP-1 cells. Agents which 1) are not cytotoxic at levels which inhibit migration, 2) are ineffective at inhibiting the negative control-induced migration, and 3) reduce or inhibit chemokine-induced THP-1 migration, are agents which fall within the scope of the invention.
For this assay, THP-1 cells were maintained at a density of 4 × 10^5 cells per ml in RPMI-1640 supplemented with 10% fetal calf serum + 20 µM 2-mercaptoethanol. Chemotaxis was induced in a 96-well disposable chemotaxis chamber fitted with a 5 µM polycarbonate filter (PVP free, ChemoTX, Neuroprobe Inc., Cabin John). Twenty-nine µl of chemoattractant (recombinant human chemokine; 50 ng/ml, i.e., 5.9 nM) or control (100 ng/ml TGFβ) was added to the lower compartment of each well. The framed filter was aligned with the holes in the corner of the filter frame and placed over the wells.
Five × 10^4 THP-1 cells in 25 µl of RPMI-1640 were added to the upper compartment. Peptides were dissolved in Milli Q water and then serially diluted in culture medium. […]
After incubation, the cells were gently removed from the top of the filter with a pipette, 20 µl of 20 mM EDTA in PBS was added into each top well, and the mixture was incubated for 20 minutes at 4°C. […] A standard curve was prepared to accurately quantify the number of THP-1 cells that had migrated. […] Absorbance of converted dye was measured at a wavelength of 595 nm using an ELISA plate reader. The number of cells that had migrated in each well was determined by interpolation of the standard curve.
To investigate the receptor specificity of peptide 3 inhibition, the ED50 was determined for peptide 3(1-12)[MCP-1] […]

[2] = test system: MCP-1 induced human monocyte migration; test: Migration of freshly prepared peripheral blood monocytes, MCP-1; format: cell-based
Protocol: Agents may also be screened in a chemotactic assay which employs human neutrophils, eosinophils, mast cells, basophils, platelets, lymphocytes or monocytes. For monocytes, 9 mls of fresh blood are transferred to a tube containing 1 ml of 3.8% sodium citrate, and left at room temperature for 15 minutes. Five mls of this anti-coagulated blood are carefully layered over 3.5 ml Polymorphprep® (Nycomed Pharma, Oslo), and centrifuged at 500 g for 35 minutes per the manufacturer's instructions. The top band at the sample/medium interface contains monocytes. The monocytes are carefully removed with a glass pipette, and reconstituted to the original volume (5 ml). The cells are washed with PBS plus 10% fetal calf serum, and centrifuged at 400 g for 10 minutes. The washing step is repeated three times before the cells are counted. Cells are resuspended at 1 × 10^7 cells/ml in RPMI-1640 + 10% fetal calf serum (FCS). The monocytes are cultured for two days at 37°C in a humidified atmosphere of 5% CO2-
On day 2, the cells are counted, spun down, and reconstituted to 1 × 10^7 cells/ml in Gey's balanced salt solution + 1 mg/ml bovine serum albumin (BSA). […]

[3] = Stability against acid hydrolysis; format: physicochemical; conditions: pH 2.0 for 2 hrs at 37°C
Description: For example, to prepare a peptide 3 derivative, peptide 3(3-12)[MCP-1] was modified according to Jameson et al. (Nature, 368, 744 (1994)), which yielded CRD-Cys13Leu4Ile11peptide 3(3-12)[MCP-1] (Figure 3).

B cells = format: cell-based

SMILES	% inhibition at 100 µM versus TGFβ1 [1]	% inhibition at 100 µM versus TGFβ1 ([1]; listed as peptide 1[MCP-1])	ED50 (µM) versus TGFβ1 ([1]; inhibition of THP-1 migration, n.s. = not statistically significant)	% inhibition at 100 µM versus MCP-1 [2]	degradation by acid hydrolysis [3]	proliferation of B cells to tetanus toxoid (in words) (B cells)
CC[C@H](C)[C@H](NC(=O)[C@H](C)NC(=O)[C@H](CC(=O)O)NC(=O)[C@@H]1CCCN1C(=O)[C@H](CCC(N)=O)NC(=O)[C@H](C)N)C(=O)N[C@@H](CC(N)=O)C(=O)N[C@@H](C)C(=O)N1CCC[C@H]1C(=O)N[C@H](C(=O)N[C@H](C(=O)N[C@@H](CS)C(=O)N[C@@H](CS)C(=O)O)[C@@H](C)O)C(C)C [Peptide 1] (H-AQPDAINAPVTCC-OH; N-terminus and C-terminus assumed)	n.s.	did not significantly inhibit	n.s.	n.s.		
CC[C@@H](C)[C@H]1NC(=O)[C@@H](CCC(N)=O)NC(=O)[C@H](N)CSSC[C@H](C(N)=O)NC(=O)[C@@H](CC(C)C)NC(=O)[C@@H](CC(=O)O)NC(=O)[C@H]2CCCN2C(=O)[C@@H](CCCCN)NC(=O)[C@@H](CCC(N)=O)NC(=O)[C@@H](CCCCN)NC(=O)[C@@H](Cc2c[nH]c3ccccc23)NC1=O (H-[dC][dQ][dI][dW][dK][dQ][dK][dP][dD][dL][dC]-NH2; disulfide 1-11)					< 10%	no effect
